Data: publication PMC4594927 (PLoS ONE, 2015)

Columns and labels:
[1] = target: T1, MtbIMPDH2ΔCBS (Mycobacterium tuberculosis, UniProt P9WKI7, DEL126-250/R252G); assay type: biochemical
[2] = target: T1, MtbIMPDH2ΔCBS; assay type: biochemical; remark: listed apart in the source

SMILES	mechanism of inhibition vs. IMP [1]	mechanism of inhibition vs. NAD^+ [1]	mechanism of inhibition with respect to IMP [1]	mechanism of inhibition with respect to NAD+ [1]	Kii (NAD+) [2] [mM]
C[C@H](Nc1cccc(Cl)c1Cl)C(=O)Nc1ccc2oc(-c3ccncc3)nc2c1 [Q67]	17 ± 9 (UC)	7 ± 7 (C)	uncompetitive	competitive	–
NC(=O)c1ccc[n+]([C@@H]2O[C@H](COP(=O)([O-])OP(=O)(O)OC[C@H]3O[C@@H](n4cnc5c(N)ncnc54)[C@H](O)[C@@H]3O)[C@@H](O)[C@H]2O)c1 [NAD+]	–	–	–	–	16 ± 1
C=C(C)c1cccc(C(C)(C)NC(=O)Nc2ccc(Cl)c(C(=O)N(C)C)c2)c1 [P41]	9 ± 4 (UC)	13 ± 4 (NC)	uncompetitive	noncompetitive	–
COc1c(C)c2c(c(O)c1C/C=C(\C)Cn1cc(COC[C@H]3O[C@@H](n4cnc5c(N)ncnc54)[C@H](O)[C@@H]3O)nn1)C(=O)OC2 [MAD1, reference compound]	1000 ± 50 (UC)	1400 ± 100 (UC)	uncompetitive	uncompetitive	–
